How the values were obtained:
[1] = tested on: normal NK cells expanded with K562-aAPC; assay: percent inhibition of viability; higher = more inhibition; details: 72 h, IL-2 2.5 ng/mL
Experimental: (§1)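 Drug sensitivity and resistance testing on K562-aAPC-expanded normal NK cells: 5 concentrations (10-fold steps over a 10,000-fold range), 72 h at 37 °C, viability by CellTiter-Glo normalised to DMSO and benzethonium chloride controls; DSS from the fitted curve.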

IMC-1 (IL-2 20 ng/mL) [2] = assay: drug sensitivity score (DSS) (DSS units); higher = more sensitive; extreme values may be limits of the assay; details: 72 h
[3] = tested on: normal primary NK cells, pool 2 (3 donors) (IL-2 2.5 ng/mL); assay: as above; details: 72 h
[4] = tested on: normal primary NK cells, pool 1 (3 donors) (IL-2 2.5 ng/mL); assay: as above; details: 72 h
YT (IL-2 2.5 ng/mL) [5] = assay: as above; details: 72 h
NK-YS (IL-2 2.5 ng/mL) [6] = assay: as above; details: 72 h
[7] = tested on: normal primary NK cells, pool 1 (3 donors), resting (IL-2 0 ng/mL); assay: as above; details: 72 h
DERL-7 (IL-2 2.5 ng/mL) [8] = assay: as above; details: 72 h
KAI3 (IL-2 2.5 ng/mL) [9] = assay: as above; details: 72 h
SNK-6 (IL-2 2.5 ng/mL) [10] = assay: as above; details: 72 h
KHYG-1 (IL-2 2.5 ng/mL) [11] = assay: as above; details: 72 h
NK-92 (IL-2 2.5 ng/mL) [12] = assay: as above; details: 72 h
[13] = tested on: normal primary NK cells, pool 3 (3 donors) (IL-2 2.5 ng/mL); assay: as above; details: 72 h
NKL (IL-2 2.5 ng/mL) [14] = assay: as above; details: 72 h
IMC-1 (IL-2 20 ng/mL) [15] = assay: percent inhibition of viability; higher = more inhibition; details: 72 h
[16] = tested on: normal primary NK cells, pool 2 (3 donors) (IL-2 2.5 ng/mL); assay: as above; details: 72 h
[17] = tested on: normal primary NK cells, pool 1 (3 donors) (IL-2 2.5 ng/mL); assay: as above; details: 72 h
YT (IL-2 2.5 ng/mL) [18] = assay: as above; details: 72 h
NK-YS (IL-2 2.5 ng/mL) [19] = assay: as above; details: 72 h
[20] = tested on: normal primary NK cells, pool 1 (3 donors), resting (IL-2 0 ng/mL); assay: as above; details: 72 h
DERL-7 (IL-2 2.5 ng/mL) [21] = assay: as above; details: 72 h
KAI3 (IL-2 2.5 ng/mL) [22] = assay: as above; details: 72 h
SNK-6 (IL-2 2.5 ng/mL) [23] = assay: as above; details: 72 h
KHYG-1 (IL-2 2.5 ng/mL) [24] = assay: as above; details: 72 h
NK-92 (IL-2 2.5 ng/mL) [25] = assay: as above; details: 72 h
[26] = tested on: normal primary NK cells, pool 3 (3 donors) (IL-2 2.5 ng/mL); assay: as above; details: 72 h
NKL (IL-2 2.5 ng/mL) [27] = assay: as above; details: 72 h
[28] = tested on: normal NK cells expanded with K562-aAPC; assay: drug sensitivity score (DSS) (DSS units); higher = more sensitive; extreme values may be limits of the assay; details: 72 h; IL-2 2.5 ng/mL
Experimental: as §1

COCC[n+]1c2c(n(Cc3cnccn3)c1C)C(=O)c1ccccc1C2=O [YM155] (max concentration tested 10000 nM)
percent inhibition of viability [%]
Details	1 nM	10 nM	100 nM	1000 nM	10000 nM
DERL-7 (IL-2 2.5 ng/mL) [21]	7.39	49.9	100	101	100
IMC-1 (IL-2 20 ng/mL) [15]	65.3	99.4	100	101	100
KAI3 (IL-2 2.5 ng/mL) [22]	8.21	49.4	93.5	106	103
KHYG-1 (IL-2 2.5 ng/mL) [24]	2.01	20.5	102	106	102
NK-92 (IL-2 2.5 ng/mL) [25]	-8.35	27.6	93.5	105	102
NK-YS (IL-2 2.5 ng/mL) [19]	0.18	29	97.7	107	103
NKL (IL-2 2.5 ng/mL) [27]	10.2	90.5	104	108	102
SNK-6 (IL-2 2.5 ng/mL) [23]	8.28	13.1	85.6	98.6	100
YT (IL-2 2.5 ng/mL) [18]	5.75	59.2	102	106	102
[1]	-6.82	3.02	36.7	96.8	100
[16]	-1.75	4.96	15.5	50.5	97.1
[17]	-4.81	-8.82	20.6	54.2	100
[20]	-2.05	-12.4	35.7	79.2	98.8
[26]	-2.28	1.02	6.74	31.9	86.7

Details	drug sensitivity score
DERL-7 (IL-2 2.5 ng/mL) [8]	36.2
IMC-1 (IL-2 20 ng/mL) [2]	48.1
KAI3 (IL-2 2.5 ng/mL) [9]	35.8
KHYG-1 (IL-2 2.5 ng/mL) [11]	33.8
NK-92 (IL-2 2.5 ng/mL) [12]	33.2
NK-YS (IL-2 2.5 ng/mL) [6]	34.2
NKL (IL-2 2.5 ng/mL) [14]	42.9
SNK-6 (IL-2 2.5 ng/mL) [10]	29.9
YT (IL-2 2.5 ng/mL) [5]	37.6
[3]	12
[4]	12.9
[7]	19.1
[13]	8.63
[28]	22
